Laboratory results: the NIST ThermoML archive (doi:10.1016/j.fluid.2013.05.008)
Numbers after ± are expanded uncertainties.

Key:
[1] = Crystal; DTA
[2] = Molar enthalpy of transition or fusion; details: Crystal; DSC

Normal melting temperature [1]: 195.62 ± 0.5 °C
Molar enthalpy of transition or fusion [2]: 12 ± 0.335 kcal/mol
Structure (SMILES): CCc1ccc(CCOc2ccc(CC3SC(=O)NC3=O)cc2)nc1.Cl (configuration not stated)
